Results reported in publication PMC12426922, “Fingerprinting the Intestinal Transport of Low-Molecular-Mass Advanced Glycation End-Products (AGEs) Using a Caco‑2 Transwell Model” (Journal of Agricultural and Food Chemistry, 2025).
Values joined by “and” are separate entries in the source; they are usually repeats but may differ in a detail not shown here. Equal entries are not always repeated. Where two headings read alike, the source gives them in different places. Marks after values point to notes of the source that are not given here.

How the values were obtained:
Caco-2 cell layer = assay: Transport of AGE mixture across Caco-2 cell layer (transwell, apical to basolateral); format: in vitro ADME, Human; settings: for effect of 4 °C on transport compared to 37 °C: 4 °C versus 37 °C; for percentage of the amount added at the apical side at t = 0: apical side / percentage of the amount added at the apical side at t = 0: basolateral side / percentage of the amount added at the apical side at t = 0: apical side (nontransported) / percentage of the amount added at the apical side at t = 0: basolateral side (transported): mixture, each AGE 100 μmol/L, 2 h; for percentage of the amount added at the apical side at t = 0: apical side (nontransported) / percentage of the amount added at the apical side at t = 0: basolateral side (transported): standard treatment
Description: (§1) Human colon carcinoma cells (Caco-2 cells) were obtained from the American Type Culture Collection (ATCC, Rockville, MD, USA). Caco-2 cells were cultured in complete culture medium, composed of DMEM GlutaMAX with 10% FBS (v/v), 1% P/S (v/v), and 1% NEAA (v/v) at 37 °C in a 5% (v/v) CO2 incubator. In this study, Caco-2 cells within passages 10–15 were utilized.
(§2) Caco-2 cells were cultured until reaching 50%–60% confluence (undifferentiated Caco-2 cells), followed by trypsinization. Then, cells were seeded at 3 × 10^4 cells per insert in 100 μL of complete culture medium into the transwell inserts of a 24-well transwell plate, and 600 μL of complete culture medium was added to the basolateral compartments. In both the apical and basolateral compartments, the medium was renewed every other day. After 2 weeks, the transepithelial electrical resistance (TEER) value was measured using a Millicell ERS-2 Electrical Resistance System (Burlington, MA, USA) every other day. Only wells with a TEER value of >400 Ω/cm^2 were used for transport experiments. Moreover, the TEER value was measured before and after the transport experiment to ascertain that the Caco-2 cell layer remained intact during the whole transport experiment.
(§3) Transport experiments were performed after 20 days of differentiation of the Caco-2 cells. The culture medium was replaced with HBSS (containing 1% (v/v) HEPES) 30 min prior to testing in both the apical and basolateral compartments. After the 30 min preincubation, 100 μL of HBSS containing a mixture of the 10 different AGEs including CML, CEL, GALA, argpyrimidine, MG-H1, GOLD, GOLA, MOLD, pentosidine, and pyrraline, each at 100 μmol/L, was added to the apical compartment after removing the preincubation medium, while the basolateral medium was replaced by 600 μL of HBSS. […] At 120 min, a 10 μL sample from the apical side was taken for calculating apical side retention (nontransported percentage).
(§4) The apparent permeability coefficient (Papp) value was calculated according to the methodology described by Yee.
(§5) AGEs were quantified by LC-MS using a Shimadzu Nexera XR LC-40D XR UPLC system (Kyoto, Japan) equipped with a UPLC Amide column (100 mm × 2.1 mm, 1.7 μm) without derivatization coupled with a Shimadzu LCMS-8045 triple quadrupole mass spectrometer (Kyoto, Japan). The analytical column was maintained at 40 °C throughout the quantification process. A multistep binary gradient system of water containing 0.1% (v/v) formic acid (solvent A) and acetonitrile containing 0.1% (v/v) formic acid (solvent B) was used. In the whole gradient program, the total proportion of solvents A and B is always equal to 100%. The gradient program was designed as follows: 75% solvent B to 12.5% solvent B from 0 to 10 min, followed by 12.5% solvent B from 10 to 11 min. […] The initial flow rate was set to 0.30 mL/min. Subsequently, it was reduced to 0.25 mL/min at 0.3 min, which was kept until 10 min. Afterward, there was a gradual decrease, reaching 0.15 mL/min at 11 min, and this rate was maintained until 12 min. […] Between 1 and 11 min of gradient running, the line was set to MS, and for the other time periods, the line was set to waste. The retention time and mass spectrometry parameters of individual AGEs are listed in Table S1 and the chromatograms of the samples are shown in Figure S1.

[1] = as above; format: in vitro ADME, Human; settings: human; for recovery at 2 h, 100 μmol/L: read-out: percentage of the amount added at the apical side at t = 0: recovery; for Papp at 120 min, 100 μmol/L: data from 120 min
Description: as §1, §2, §3, §4, §5

PepT1 = assay: as above; format: in vitro ADME, Human; settings: human, mixture, each AGE 100 μmol/L; for recovery at 2 h, 100 μmol/L: Caco-2, with Gly-Sar 10 mmol/L (apical compartment), Gly-Sar 10 mmol/L, read-out: percentage of the amount added at the apical side at t = 0: recovery; for Papp at 120 min, 100 μmol/L: Caco-2, with Gly-Sar 10 mmol/L (apical), 10 mmol/L Gly-Sar apical (PepT1 inhibition), data from 120 min
Description: as §1, §2, §3, §4, §5

[2] = system: differentiated Caco-2 cells; assay: WST-1 cytotoxicity assay, viability of differentiated Caco-2 cells after 2 h exposure; format: cell-based, Human; settings: for concentration that did not significantly affect cell viability: for the mixture: concentration of each AGE
Description: as §1
The WST-1 assay was used to quantify the viability of differentiated Caco-2 cells upon exposure to the individual AGEs and their equimolar mixture. To this end, Caco-2 cells were seeded in 96-well plates at 3 × 10^4 cells/well (100 μL) and incubated at 37 °C under 5% (v/v) CO2 for 20 days. The complete culture medium was refreshed on each alternate day. After full differentiation, the culture medium was removed, and the cells were washed with HBSS (containing 1% (v/v) HEPES) twice on the testing day. The same volume (100 μL) of HBSS containing a series of concentrations of the different individual test compounds or of a mixture containing all 10 AGEs was added from a 20-times-concentrated stock solution in HBSS. The test concentrations were designed based on the estimated daily intake of total AGEs (0.55–0.66 mg/(kg·day)) and high-exposure scenarios (1.4–1.8 mg/(kg day)). […] After exposure for 2 h, the absorbance at 440 and 620 nm was measured in a plate spectrophotometer (Molecular Devices, San Jose, CA, USA, Spectra Max M2). After measurement, the cell viability was calculated as cell viability (%)=(Atested 440 nm−Atested 620 nm)/(Acontrol 440 nm−Acontrol 620 nm)×100

Caco-2 cell monolayer = assay: Accumulation of AGEs in the Caco-2 cell monolayer after transport experiment; format: in vitro ADME, Human; settings: mixture, each AGE 100 μmol/L, 2 h; for percentage of the amount added at the apical side at t = 0: accumulation (intracellular): standard treatment
Description: After the transport experiment, the cell monolayer on the inset membrane was washed three times with HBSS and three times with PBS. […] The samples were subsequently centrifuged at 16 000g for 20 min at 4 °C, and the supernatant was collected for further analysis by LC-MS.
as §5, with “The” for “AGEs were quantified by LC-MS using a Shimadzu Nexera XR LC-40D XR UPLC system (Kyoto, Japan) equipped with a UPLC Amide column (100 mm × 2.1 mm, 1.7 μm) without derivatization coupled with a Shimadzu LCMS-8045 triple quadrupole mass spectrometer (Kyoto, Japan). The”, “100%.” for “100%. The gradient program was designed as follows: 75% solvent B to 12.5% solvent B from 0 to 10 min, followed by 12.5% solvent B from 10 to 11 min.”

[3] = Caco-2, 4 °C, mixture, each AGE 100 μmol/L
[4] = Caco-2, cytochalasin D pretreatment, mixture, each AGE 100 μmol/L
[5] = Caco-2, standard treatment (37 °C), equimolar mixture of 10 AGEs, each 100 μmol/L apical
[6] = Caco-2, standard treatment, mixture, each AGE 100 μmol/L
[7] = Caco-2, cytochalasin D 1 μg/mL, 30 min apical preincubation, mixture, each AGE 100 μmol/L

Compound | percentage of the amount added at the apical side at t = 0: apical side (Caco-2 cell layer; 4 °C) | percentage of the amount added at the apical side at t = 0: basolateral side (Caco-2 cell layer; 4 °C) | percentage of the amount added at the apical side at t = 0: apical side (Caco-2 cell layer; Gly-Sar 10 mmol/L) | percentage of the amount added at the apical side at t = 0: basolateral side (Caco-2 cell layer; Gly-Sar 10 mmol/L) | percentage of the amount added at the apical side at t = 0: apical side (Caco-2 cell layer; cytochalasin D pretreatment) | percentage of the amount added at the apical side at t = 0: basolateral side (Caco-2 cell layer; cytochalasin D pretreatment) | percentage of the amount added at the apical side at t = 0: apical side (nontransported) (Caco-2 cell layer) | percentage of the amount added at the apical side at t = 0: basolateral side (transported) (Caco-2 cell layer) | recovery at 2 h, 100 μmol/L [1, 3] [%] | Papp at 120 min, 100 μmol/L [1, 3] [×10⁻⁶ cm/s] | recovery at 2 h, 100 μmol/L [1, 4] [%] | Papp at 120 min, 100 μmol/L [1, 5] [×10⁻⁶ cm/s] | recovery at 2 h, 100 μmol/L [1, 6] [%] | Papp at 120 min, 100 μmol/L [1, 7] [×10⁻⁶ cm/s] | recovery at 2 h, 100 μmol/L (PepT1) [%] | Papp at 120 min, 100 μmol/L (PepT1) [×10⁻⁶ cm/s] | percentage of the amount added at the apical side at t = 0: accumulation (Caco-2 cell monolayer; 4 °C) | percentage of the amount added at the apical side at t = 0: accumulation (Caco-2 cell monolayer; Gly-Sar 10 mmol/L) | percentage of the amount added at the apical side at t = 0: accumulation (Caco-2 cell monolayer; cytochalasin D pretreatment) | percentage of the amount added at the apical side at t = 0: accumulation (intracellular) (Caco-2 cell monolayer) | other results
N[C@@H](CCCCn1cc[n+](CCCC[C@H](N)C(=O)O)c1)C(=O)O [GOLD, glyoxal-derived lysine dimer] | 89.6 ± 13.2 ^b % | 0.1 ± 0.1 ^b % | 93.7 ± 7.9 ^ab % | 0.2 ± 0.1 ^b % | 101.2 ± 9.4 ^a % | 0.8 ± 0.3 ^a % | 94.6 ± 8.1 ^ab % | 0.3 ± 0.2 ^b % | 89.8 ± 13.2 | 0.069 | 102 ± 9.5 | 0.134 | 95 ± 8.2 | 0.32 | 94.1 ± 8 | 0.1 | 0.0 ± 0.0 ^c % | 0.1 ± 0.0 ^a % | 0.0 ± 0.0 ^ab % | – | effect of 4 °C on transport compared to 37 °C (Caco-2 cell layer): significantly reduced; effect on cell viability [2]: did not affect cell viability up to the highest concentration tested
N[C@@H](CCCCn1c(C=O)ccc1CO)C(=O)O [pyrraline] | 86.9 ± 6.0 ^a % | 0.1 ± 0.1 ^b % | 86.4 ± 2.8 ^a % | 0.2 ± 0.1 ^b % | 89.4 ± 4.7 ^a % | 0.8 ± 0.5 ^a % | 88.6 ± 5.5 ^a % | 0.2 ± 0.1 ^b % | 87.1 ± 6.1 | – | 90.3 ± 4.9 | 0.1 | 89 ± 5.6 | 0.334 | 86.7 ± 2.8 | 0.08 | 0.0 ± 0.0 ^b % | 0.1 ± 0.0 ^a % | 0.2 ± 0.1 ^a % | 0.1 ± 0.1 ^a % | effect on cell viability [2]: did not affect cell viability up to the highest concentration tested
Cc1nc(NCCC[C@H](N)C(=O)O)nc(C)c1O [argpyrimidine] | 87.1 ± 5.4 ^b % | 0.2 ± 0.1 ^b % | 93.8 ± 5.0 ^a % | 0.3 ± 0.1 ^b % | 93.3 ± 5.2 ^a % | 0.9 ± 0.6 ^a % | 91.2 ± 5.9 ^ab % | – | 87.4 ± 5.4 | 0.099 | 94.7 ± 5.4 | 0.145 | 91.8 ± 5.9 | 0.395 | 94.6 ± 5.2 | 0.141 | 0.0 ± 0.0 ^b % | 0.5 ± 0.2 ^a % | 0.5 ± 0.3 ^a % | 0.2 ± 0.2 ^b % | concentration that did not significantly affect cell viability [2]: ≤ 500 µM
N[C@@H](CCCCNC(=O)CO)C(=O)O [GALA, glycolic acid–lysine–amide] | 89.1 ± 4.5 ^a % | 0.2 ± 0.1 ^c % | 84.4 ± 3.6 ^a % | 0.8 ± 0.2 ^b % | 87.4 ± 4.3 ^a % | 2.1 ± 0.8 ^a % | 85.0 ± 7.1 ^a % | 1.1% and 1.06% and 1.1 ± 0.3 ^b % | 89.3 ± 4.5 | 0.095 | 89.7 ± 4.6 | 0.448 | 86.2 ± 7.1 | 0.87 | 85.4 ± 3.6 | 0.321 | 0.0 ± 0.0 ^b % | 0.2 ± 0.1 ^a % | 0.2 ± 0.1 ^a % | 0.2 ± 0.1 ^a % | effect of 4 °C on transport compared to 37 °C (Caco-2 cell layer): significantly reduced; reduction of the Papp value in the presence of Gly-Sar (Caco-2 cell layer; Gly-Sar 10 mmol/L versus standard): 28%; concentration that did not significantly affect cell viability [2]: ≤ 1500 µM
